Experimental data as given in the supplement of paper PMC10307832.

Legend:
Test in all cases: relative viability (nuclei count vs DMSO), 5 days (fraction); higher = more cells survive
NCI-H1915 = system: NCI-H1915
Procedure, shortened: (§1)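 Values are medians from duplicate plates. Each reflects relative viability, defined as the nuclei count of treated wells over that of vehicle wells. Lung cancer cell lines in 1536-well plates were pin-tool dosed one day after seeding with one drug alone or with a fixed anchor-drug dose plus five library-drug doses (not always all listed) in √10 steps, then fixed, stained and imaged at 4× after 5 days.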

NCI-H1993 = system: NCI-H1993
Procedure, shortened: as §1

HARA = system: HARA
Procedure, shortened: as §1

NCI-H2023 = system: NCI-H2023
Procedure, shortened: as §1

NCI-H2085 = system: NCI-H2085
Procedure, shortened: as §1

LC-2-ad = system: LC-2-ad
Procedure, shortened: as §1

NCI-H1355 = system: NCI-H1355
Procedure, shortened: as §1

NCI-H650 = system: NCI-H650
Procedure, shortened: as §1

EPLC-272H = system: EPLC-272H
Procedure, shortened: as §1

NCI-H1651 = system: NCI-H1651
Procedure, shortened: as §1

HCC-15 = system: HCC-15
Procedure, shortened: as §1

HCC-78 = system: HCC-78
Procedure, shortened: as §1

SW 1573 = system: SW 1573
Procedure, shortened: as §1

NCI-H2126 = system: NCI-H2126
Procedure, shortened: as §1

NCI-H2347 = system: NCI-H2347
Procedure, shortened: as §1

ABC-1 = system: ABC-1
Procedure, shortened: as §1

PC-14 = system: PC-14
Procedure, shortened: as §1

UMC-11 = system: UMC-11
Procedure, shortened: as §1

COR-L23 = system: COR-L23
Procedure, shortened: as §1

NCI-H838 = system: NCI-H838
Procedure, shortened: as §1

LU99A = system: LU99A
Procedure, shortened: as §1

## O=C(O)c1ccc(-c2c[nH]c3ncc(-c4ccccc4)cc23)cc1C1CCCC1 + CC(C)C[C@H](NC(=O)[C@H](Cc1ccccc1)NC(=O)c1cnccn1)B(O)O [Bortezomib] (partner 0.002 µM)
NCI-H1915; first compound 0.04 µM
  relative viability: 0.957
NCI-H1915; first compound 0.1265 µM
  relative viability: 0.949
NCI-H1915; first compound 0.4 µM
  relative viability: 0.957
NCI-H1915; first compound 1.265 µM
  relative viability: 0.789
NCI-H1993; first compound 0.04 µM
  relative viability: 1.18
NCI-H1993; first compound 0.4 µM
  relative viability: 1.14
NCI-H1993; first compound 1.265 µM
  relative viability: 0.871
HARA; first compound 0.04 µM
  relative viability: 1.05
HARA; first compound 0.1265 µM
  relative viability: 1.28
HARA; first compound 0.4 µM
  relative viability: 1.1
HARA; first compound 1.265 µM
  relative viability: 1.08
NCI-H2023; first compound 0.04 µM
  relative viability: 1.04
NCI-H2023; first compound 0.1265 µM
  relative viability: 1.08
NCI-H2023; first compound 0.4 µM
  relative viability: 1.09
NCI-H2023; first compound 1.265 µM
  relative viability: 0.699
NCI-H2085; first compound 0.04 µM
  relative viability: 1.08
NCI-H2085; first compound 0.1265 µM
  relative viability: 1.07
NCI-H2085; first compound 0.4 µM
  relative viability: 1.02
NCI-H2085; first compound 1.265 µM
  relative viability: 0.896
LC-2-ad; first compound 0.04 µM
  relative viability: 1.04
LC-2-ad; first compound 0.1265 µM
  relative viability: 1.1
LC-2-ad; first compound 0.4 µM
  relative viability: 1.02
LC-2-ad; first compound 1.265 µM
  relative viability: 0.779
NCI-H1355; first compound 0.04 µM
  relative viability: 1.18
NCI-H1355; first compound 0.1265 µM
  relative viability: 1.29
NCI-H1355; first compound 0.4 µM
  relative viability: 1.22
NCI-H1355; first compound 1.265 µM
  relative viability: 1.04
NCI-H650; first compound 0.04 µM
  relative viability: 0.746
NCI-H650; first compound 0.1265 µM
  relative viability: 0.895
NCI-H650; first compound 0.4 µM
  relative viability: 0.858
NCI-H650; first compound 1.265 µM
  relative viability: 0.5
EPLC-272H; first compound 0.04 µM
  relative viability: 0.755
EPLC-272H; first compound 0.1265 µM
  relative viability: 1.13
EPLC-272H; first compound 0.4 µM
  relative viability: 0.931
EPLC-272H; first compound 1.265 µM
  relative viability: 1.01
NCI-H1651; first compound 0.04 µM
  relative viability: 0.879
NCI-H1651; first compound 0.1265 µM
  relative viability: 0.984
NCI-H1651; first compound 0.4 µM
  relative viability: 0.983
NCI-H1651; first compound 1.265 µM
  relative viability: 0.855
HCC-15; first compound 0.04 µM
  relative viability: 0.985
HCC-15; first compound 0.1265 µM
  relative viability: 1.05
HCC-15; first compound 0.4 µM
  relative viability: 1.08
HCC-15; first compound 1.265 µM
  relative viability: 0.731
HCC-78; first compound 0.04 µM
  relative viability: 0.477
HCC-78; first compound 0.1265 µM
  relative viability: 0.473
HCC-78; first compound 0.4 µM
  relative viability: 0.436
HCC-78; first compound 1.265 µM
  relative viability: 0.495
SW 1573; first compound 0.04 µM
  relative viability: 1.11
SW 1573; first compound 0.1265 µM
  relative viability: 1.09
SW 1573; first compound 0.4 µM
  relative viability: 0.99
SW 1573; first compound 1.265 µM
  relative viability: 0.722
NCI-H2126; first compound 0.04 µM
  relative viability: 1.16
NCI-H2126; first compound 0.1265 µM
  relative viability: 1.13
NCI-H2126; first compound 0.4 µM
  relative viability: 1.1
NCI-H2126; first compound 1.265 µM
  relative viability: 1.02
NCI-H2347; first compound 0.04 µM
  relative viability: 1.03
NCI-H2347; first compound 0.1265 µM
  relative viability: 1.32
NCI-H2347; first compound 0.4 µM
  relative viability: 0.869
NCI-H2347; first compound 1.265 µM
  relative viability: 1.05
ABC-1; first compound 0.04 µM
  relative viability: 0.264
ABC-1; first compound 0.1265 µM
  relative viability: 0.299
ABC-1; first compound 0.4 µM
  relative viability: 0.274
ABC-1; first compound 1.265 µM
  relative viability: 0.251
PC-14; first compound 0.04 µM
  relative viability: 0.917
PC-14; first compound 0.1265 µM
  relative viability: 0.901
PC-14; first compound 0.4 µM
  relative viability: 0.891
PC-14; first compound 1.265 µM
  relative viability: 0.758
UMC-11; first compound 0.04 µM
  relative viability: 0.747
UMC-11; first compound 0.1265 µM
  relative viability: 0.764
UMC-11; first compound 0.4 µM
  relative viability: 0.666
UMC-11; first compound 1.265 µM
  relative viability: 0.519
COR-L23; first compound 0.04 µM
  relative viability: 0.962
COR-L23; first compound 0.1265 µM
  relative viability: 1.16
COR-L23; first compound 0.4 µM
  relative viability: 0.906
COR-L23; first compound 1.265 µM
  relative viability: 0.622
NCI-H838; first compound 0.04 µM
  relative viability: 0.814
NCI-H838; first compound 0.1265 µM
  relative viability: 1.32
NCI-H838; first compound 0.4 µM
  relative viability: 0.703
NCI-H838; first compound 1.265 µM
  relative viability: 0.714
LU99A; first compound 0.04 µM
  relative viability: 1.19
LU99A; first compound 0.1265 µM
  relative viability: 1.08
LU99A; first compound 0.4 µM
  relative viability: 1.06
LU99A; first compound 1.265 µM
  relative viability: 0.816

## O=C(O)c1ccc(-c2c[nH]c3ncc(-c4ccccc4)cc23)cc1C1CCCC1 + CC1(C)CCC(c2ccc(Cl)cc2)=C(CN2CCN(c3ccc(C(=O)NS(=O)(=O)c4ccc(N[C@H](CCN5CCOCC5)CSc5ccccc5)c(S(=O)(=O)C(F)(F)F)c4)cc3)CC2)C1 [Navitoclax] (partner 0.5 µM)
NCI-H1915; first compound 0.04 µM
  relative viability: 0.769
NCI-H1915; first compound 0.1265 µM
  relative viability: 0.77
NCI-H1915; first compound 0.4 µM
  relative viability: 0.609
NCI-H1915; first compound 1.265 µM
  relative viability: 0.502
NCI-H1993; first compound 0.04 µM
  relative viability: 0.955
NCI-H1993; first compound 0.4 µM
  relative viability: 0.986
NCI-H1993; first compound 1.265 µM
  relative viability: 0.795
HARA; first compound 0.04 µM
  relative viability: 1.08
HARA; first compound 0.1265 µM
  relative viability: 1.14
HARA; first compound 0.4 µM
  relative viability: 1.09
HARA; first compound 1.265 µM
  relative viability: 1.04
NCI-H2023; first compound 0.04 µM
  relative viability: 1.03
NCI-H2023; first compound 0.1265 µM
  relative viability: 1.11
NCI-H2023; first compound 0.4 µM
  relative viability: 0.987
NCI-H2023; first compound 1.265 µM
  relative viability: 0.904
NCI-H2085; first compound 0.04 µM
  relative viability: 1.06
NCI-H2085; first compound 0.1265 µM
  relative viability: 1.1
NCI-H2085; first compound 0.4 µM
  relative viability: 1.04
NCI-H2085; first compound 1.265 µM
  relative viability: 0.72
LC-2-ad; first compound 0.04 µM
  relative viability: 0.399
LC-2-ad; first compound 0.1265 µM
  relative viability: 0.5
LC-2-ad; first compound 0.4 µM
  relative viability: 0.415
LC-2-ad; first compound 1.265 µM
  relative viability: 0.173
NCI-H1355; first compound 0.04 µM
  relative viability: 0.995
NCI-H1355; first compound 0.1265 µM
  relative viability: 0.957
NCI-H1355; first compound 0.4 µM
  relative viability: 1.03
NCI-H1355; first compound 1.265 µM
  relative viability: 0.683
EPLC-272H; first compound 0.04 µM
  relative viability: 1.01
EPLC-272H; first compound 0.1265 µM
  relative viability: 1.16
EPLC-272H; first compound 0.4 µM
  relative viability: 1.06
EPLC-272H; first compound 1.265 µM
  relative viability: 0.811
NCI-H1651; first compound 0.04 µM
  relative viability: 0.926
NCI-H1651; first compound 0.1265 µM
  relative viability: 0.995
NCI-H1651; first compound 0.4 µM
  relative viability: 0.943
NCI-H1651; first compound 1.265 µM
  relative viability: 0.696
HCC-15; first compound 0.04 µM
  relative viability: 0.697
HCC-15; first compound 0.1265 µM
  relative viability: 0.746
HCC-15; first compound 0.4 µM
  relative viability: 0.662
HCC-15; first compound 1.265 µM
  relative viability: 0.373
HCC-78; first compound 0.04 µM
  relative viability: 0.849
HCC-78; first compound 0.1265 µM
  relative viability: 0.904
HCC-78; first compound 0.4 µM
  relative viability: 0.802
HCC-78; first compound 1.265 µM
  relative viability: 0.542
SW 1573; first compound 0.04 µM
  relative viability: 1.02
SW 1573; first compound 0.1265 µM
  relative viability: 1.22
SW 1573; first compound 0.4 µM
  relative viability: 1.05
SW 1573; first compound 1.265 µM
  relative viability: 0.619
NCI-H2126; first compound 0.04 µM
  relative viability: 0.892
NCI-H2126; first compound 0.1265 µM
  relative viability: 0.875
NCI-H2126; first compound 0.4 µM
  relative viability: 0.745
NCI-H2126; first compound 1.265 µM
  relative viability: 0.685
NCI-H2347; first compound 0.04 µM
  relative viability: 0.778
NCI-H2347; first compound 0.1265 µM
  relative viability: 0.821
NCI-H2347; first compound 0.4 µM
  relative viability: 0.761
NCI-H2347; first compound 1.265 µM
  relative viability: 0.612
PC-14; first compound 0.04 µM
  relative viability: 1.01
PC-14; first compound 0.1265 µM
  relative viability: 1.1
PC-14; first compound 0.4 µM
  relative viability: 1.03
PC-14; first compound 1.265 µM
  relative viability: 0.814
UMC-11; first compound 0.04 µM
  relative viability: 0.318
UMC-11; first compound 0.1265 µM
  relative viability: 0.299
UMC-11; first compound 0.4 µM
  relative viability: 0.328
UMC-11; first compound 1.265 µM
  relative viability: 0.222
COR-L23; first compound 0.04 µM
  relative viability: 1.01
COR-L23; first compound 0.1265 µM
  relative viability: 1.04
COR-L23; first compound 0.4 µM
  relative viability: 1.09
COR-L23; first compound 1.265 µM
  relative viability: 0.64
NCI-H838; first compound 0.04 µM
  relative viability: 1.15
NCI-H838; first compound 0.1265 µM
  relative viability: 1.27
NCI-H838; first compound 0.4 µM
  relative viability: 1.22
NCI-H838; first compound 1.265 µM
  relative viability: 1.07
LU99A; first compound 0.04 µM
  relative viability: 0.818
LU99A; first compound 0.1265 µM
  relative viability: 0.987
LU99A; first compound 0.4 µM
  relative viability: 0.735
LU99A; first compound 1.265 µM
  relative viability: 0.721
